In patent US20250161281A1, “EMOPAMIL-BINDING PROTEIN INHIBITORS AND USES THEREOF” (BIOGEN MA INC., priority 2022, published 2025):

biological target: T1, EBP (Homo sapiens, UniProt Q15125); assay: EBP Functional Assay (EBP immunoaffinity LC-MS assay); format: biochemical; details: HEK293T cells as source of EBP enzyme; 30 min with inhibitor, then zymosterol-d5, 37° C. for 4 h; percent conversion by LC-APCI MRM MS
T1 construct: HEK293T cells were utilized as the source of EBP enzyme; endogenous in cells; host or cells: HEK293T
Experimental: The EBP immunoaffinity (IA) LC-MS assay measures the potency of small molecule inhibitors of EBP by quantifying their concentration-dependent changes in the enzyme's substrate and product using liquid chromatography atmospheric pressure chemical ionization multiple reaction monitoring mass spectrometry (LC-APCI MRM MS). HEK293T cells were utilized as the source of EBP enzyme. The enzyme was incubated with the small molecule inhibitors at variable concentrations for 30 min. Deuterated form of EBP substrate, zymosterol-d5 (Avanti Polar Lipids, Cat #700068P-1 mg), was then added and the plate was incubated at 37° C. for 4 h. Finally, the sterol isomers were extracted and injected to LC-APCI MRM MS. MRM transition used for the quantification for both zymosterol and dihydrolathosterol (substrate and product of EBP enzymatic reaction, respectively) is 372.3-203.2, CE 30 and DP 80 in positive ion mode. Percent conversion of the zymosterol-d5 to dehydrolathosterol-d5 was used to derive IC50 curves. Tasin-1 (1′-[(4-Methoxyphenyl)sulfonyl]-4-methyl-1,4′-bipiperidine, CAS 792927-06-1) was used as the reference small molecule inhibitor. Percent conversion versus the compound concentration data were fit to the following 4-parameter logistic model to generate IC50 curves: […]

T1 sequence (Q15125 whole entry): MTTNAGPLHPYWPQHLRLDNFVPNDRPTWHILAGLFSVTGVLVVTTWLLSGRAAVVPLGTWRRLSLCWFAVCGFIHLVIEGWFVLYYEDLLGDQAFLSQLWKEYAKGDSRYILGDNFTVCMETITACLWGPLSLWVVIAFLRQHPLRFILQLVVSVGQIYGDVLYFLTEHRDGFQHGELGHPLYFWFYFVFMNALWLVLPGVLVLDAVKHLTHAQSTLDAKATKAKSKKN

Row | IC50 | Structure (SMILES)
1 | 0.15 to 2 µM | COCCC1CN(C2CC3CCC(C2)N3S(=O)(=O)c2ccc(OC(F)F)cc2)C1 (stereo not drawn) [Example 54, 8-((4-(Difluoromethoxy)phenyl)sulfonyl)-3-(3-(2-methoxyethyl)azetidin-1-yl)-8-azabicyclo[3.2.1]octane]
2 | < 0.05 µM | CC1CCN([C@@H]2C[C@H]3CC[C@@H](C2)N3S(=O)(=O)c2cn3c(n2)CCCC3C)CC1 (stereo partly drawn) [Example 11, 5-Methyl-2-(((1R,3s,5S)-3-(4-methylpiperidin-1-yl)-8-azabicyclo[3.2.1]octan-8-yl)sulfonyl)-5,6,7,8-tetrahydroimidazo[1,2-a]pyridine]
3 | 0.15 to 2 µM | CC(O)CCN[C@@H]1C[C@H]2CC[C@@H](C1)N2S(=O)(=O)c1ccc(OC(F)F)cc1 (mixture of isomers) [Example 60, rac-4-(((1R,3s,5S)-8-((4-(difluoromethoxy)phenyl)sulfonyl)-8-azabicyclo[3.2.1]octan-3-yl)amino)butan-2-ol]
4 | 0.05 to 0.15 µM | O=S(=O)(c1ccc(OC(F)F)cc1)N1[C@@H]2CC[C@H]1C[C@@H](NC[C@H]1C[C@@H](O)C1)C2 (single isomer, unassigned) [Example 64]
5 | < 0.05 µM | Cc1nc(C(F)(F)F)ccc1S(=O)(=O)N1[C@@H]2CC[C@H]1C[C@@H](NCC1CCOCC1)C2 (single isomer, unassigned) [Example 25]
6 | < 0.05 µM | O=S(=O)(c1ccc(OC(F)F)cc1)N1C2CCC1CC(NC1CCOCC1)C2 (stereo not drawn) [Example 73, 8-((4-(Difluoromethoxy)phenyl)sulfonyl)-N-(tetrahydro-2H-pyran-4-yl)-8-azabicyclo[3.2.1]octan-3-amine]
7 | < 0.05 µM | Cc1cc(S(=O)(=O)N2[C@@H]3CC[C@H]2C[C@H](CN2CCOCC2)C3)n(C)n1 [Example 36, 4-(((1R,3s,5S)-8-((1,3-Dimethyl-1H-pyrazol-5-yl)sulfonyl)-8-azabicyclo[3.2.1]octan-3-yl)methyl)morpholine]
8 | < 0.05 µM | O=S(=O)(c1ccc(OC(F)F)cc1)N1C2CCC1CC(N1C3CCCC1CC(F)(F)C3)C2 (stereo not drawn) [Example 16, 9-(8-((4-(Difluoromethoxy)phenyl)sulfonyl)-8-azabicyclo[3.2.1]octan-3-yl)-3,3-difluoro-9-azabicyclo[3.3.1]nonane]
9 | < 0.05 µM | CC1CCN([C@@H]2C[C@H]3CC[C@@H](C2)N3S(=O)(=O)c2c3c(nn2C)CCOC3)CC1 [Example 9, 2-Methyl-3-(((1R,3s,5S)-3-(4-methylpiperidin-1-yl)-8-azabicyclo[3.2.1]octan-8-yl)sulfonyl)-2,4,6,7-tetrahydropyrano[4,3-c]pyrazole]
10 | 0.15 to 2 µM | CC(C)(O)CN[C@@H]1C[C@H]2CC[C@@H](C1)N2S(=O)(=O)c1ccc(OC(F)F)cc1 [Example 76, 1-(((1R,3s,5S)-8-((4-(Difluoromethoxy)phenyl)sulfonyl)-8-azabicyclo[3.2.1]octan-3-yl)amino)-2-methylpropan-2-ol]
11 | < 0.05 µM | O=S(=O)(c1ccc(OC(F)F)cc1)N1[C@@H]2CC[C@H]1C[C@H](NCC1CCOCC1)C2 [Example 29, (1R,3s,5S)-8-((4-(Difluoromethoxy)phenyl)sulfonyl)-N-((tetrahydro-2H-pyran-4-yl)methyl)-8-azabicyclo[3.2.1]octan-3-amine]
12 | 0.15 to 2 µM | CN(C1CCOCC1)[C@@H]1C[C@H]2CC[C@@H](C1)N2S(=O)(=O)c1ccc(OC(F)F)cc1 [Example 66, (1R,3s,5S)-8-((4-(difluoromethoxy)phenyl)sulfonyl)-N-methyl-N-(tetrahydro-2H-pyran-4-yl)-8-azabicyclo[3.2.1]octan-3-amine]
13 | < 0.05 µM | COC(C)C(C)NC1CC2CCC(C1)N2S(=O)(=O)c1ccc(OC(F)F)cc1 (stereo not drawn) [Example 55, 8-((4-(Difluoromethoxy)phenyl)sulfonyl)-N-(3-methoxybutan-2-yl)-8-azabicyclo[3.2.1]octan-3-amine]
14 | < 0.05 µM | O=S(=O)(c1ccc(OC(F)F)cc1)N1C2CCC1CC(NC1CCC1O)C2 (stereo not drawn) [Example 14, 2-((8-((4-(Difluoromethoxy)phenyl)sulfonyl)-8-azabicyclo[3.2.1]octan-3-yl)amino)cyclobutan-1-ol]
15 | < 0.05 µM | Cc1nc(C(F)(F)F)ccc1S(=O)(=O)N1[C@@H]2CC[C@H]1C[C@H](NCC1(C)COC1)C2 (single isomer, unassigned) [Example 26]
16 | < 0.05 µM | CC12CC(NC3CC4CCC(C3)N4S(=O)(=O)c3ccc(OC(F)F)cc3)(CO1)C2 (stereo not drawn) [Example 30, 8-((4-(Difluoromethoxy)phenyl)sulfonyl)-N-(1-methyl-2-oxabicyclo[2.1.1]hexan-4-yl)-8-azabicyclo[3.2.1]octan-3-amine]
17 | < 0.05 µM | CC1(CNC2C[C@H]3CC[C@@H](C2)N3S(=O)(=O)c2ccc(OC(F)F)cc2)COC1 (mixture of isomers) [Example 15, 8-((4-(Difluoromethoxy)phenyl)sulfonyl)-N-((3-methyloxetan-3-yl)methyl)-8-azabicyclo[3.2.1]octan-3-amine]

Row | IC50 | Structure (SMILES)
18 | 0.15 to 2 µM | O=S(=O)(c1ccc(OC(F)F)cc1)N1[C@@H]2CC[C@H]1C[C@H](NC[C@H]1C[C@@H](O)C1)C2 (single isomer, unassigned) [Example 63]
19 | < 0.05 µM | O=S(=O)(c1ccc(OC(F)F)cc1)N1[C@@H]2CC[C@H]1C[C@@H](NCC1CCOCC1)C2 [Example 32, (1R,3r,5S)-8-((4-(Difluoromethoxy)phenyl)sulfonyl)-N-((tetrahydro-2H-pyran-4-yl)methyl)-8-azabicyclo[3.2.1]octan-3-amine]
20 | < 0.05 µM | Cc1nc(C(F)(F)F)ccc1S(=O)(=O)N1[C@@H]2CC[C@H]1C[C@H](N1CC3(COC3)C1)C2 (single isomer, unassigned) [Example 22]
21 | 0.15 to 2 µM | Cc1ccnc(-n2cc(S(=O)(=O)N3[C@@H]4CC[C@H]3C[C@@H](N3CCC(C)CC3)C4)cn2)c1 [Example 40, (1R,3r,5S)-3-(4-methylpiperidin-1-yl)-8-((1-(4-methylpyridin-2-yl)-1H-pyrazol-4-yl)sulfonyl)-8-azabicyclo[3.2.1]octane]
22 | < 0.05 µM | Cc1nc(C(F)(F)F)ccc1S(=O)(=O)N1[C@@H]2CC[C@H]1C[C@@H](NCC1(C)COC1)C2 (single isomer, unassigned) [Example 27]
23 | 0.05 to 0.15 µM | COc1cc(F)c(S(=O)(=O)N2[C@@H]3CC[C@H]2C[C@H](N2CCC(C)CC2)C3)c(F)c1 [Example 43, (1R,3s,5S)-8-((2,6-Difluoro-4-methoxyphenyl)sulfonyl)-3-(4-methylpiperidin-1-yl)-8-azabicyclo[3.2.1]octane]
24 | < 0.05 µM | O=S(=O)(c1ccc(OC(F)F)cc1)N1[C@@H]2CC[C@H]1C[C@H](CN1CCOCC1)C2 [Example 67, 4-(((1R,3s,5S)-8-((4-(Difluoromethoxy)phenyl)sulfonyl)-8-azabicyclo[3.2.1]octan-3-yl)methyl)morpholine]
25 | 0.15 to 2 µM | O=S(=O)(c1ccc(OC(F)F)cc1)N1C2CCC1CC(N1CCC3(COC3)C1)C2 (stereo not drawn) [Example 51, 6-(8-((4-(Difluoromethoxy)phenyl)sulfonyl)-8-azabicyclo[3.2.1]octan-3-yl)-2-oxa-6-azaspiro[3.4]octane]
26 | < 0.05 µM | Cc1ccnc(-n2cc(S(=O)(=O)N3[C@@H]4CC[C@H]3C[C@H](N3CCC(C)CC3)C4)cn2)c1 [Example 41, (1R,3s,5S)-3-(4-Methylpiperidin-1-yl)-8-((1-(4-methylpyridin-2-yl)-1H-pyrazol-4-yl)sulfonyl)-8-azabicyclo[3.2.1]octane]
27 | < 0.05 µM | CC1CCN([C@H]2C[C@H]3CC[C@@H](C2)N3S(=O)(=O)c2ccc(OC(F)F)cc2)CC1 [Example 20, (1R,3r,5S)-8-((4-(difluoromethoxy)phenyl)sulfonyl)-3-(4-methylpiperidin-1-yl)-8-azabicyclo[3.2.1]octane]
28 | < 0.05 µM | O=S(=O)(c1ccc(OC(F)F)cc1)N1[C@@H]2CC[C@H]1C[C@@H](NCC1COC1)C2 [Example 72, (1R,3r,5S)-8-((4-(Difluoromethoxy)phenyl)sulfonyl)-N-(oxetan-3-ylmethyl)-8-azabicyclo[3.2.1]octan-3-amine]
29 | 0.05 to 0.15 µM | COC1CCN(C2CC3CCC(C2)N3S(=O)(=O)c2ccc(OC(F)F)cc2)C1 (stereo not drawn) [Example 50, 8-((4-(Difluoromethoxy)phenyl)sulfonyl)-3-(3-methoxypyrrolidin-1-yl)-8-azabicyclo[3.2.1]octane]
30 | > 2 µM | O=S(=O)(c1ccc(OC(F)F)cc1)N1C2CCC1CC(NC1COC1)C2 (stereo not drawn) [Example 74, 8-((4-(Difluoromethoxy)phenyl)sulfonyl)-N-(oxetan-3-yl)-8-azabicyclo[3.2.1]octan-3-amine]
31 | 0.05 to 0.15 µM | O=S(=O)(c1ccc(OC(F)F)cc1)N1C2CCC1CC(N[C@@H]1CCOC1)C2 (stereo partly drawn) [Example 70, 8-((4-(Difluoromethoxy)phenyl)sulfonyl)-N—((R)-tetrahydrofuran-3-yl)-8-azabicyclo[3.2.1]octan-3-amine]
32 | 0.15 to 2 µM | CC1CCN([C@@H]2C[C@H]3CC[C@@H](C2)N3S(=O)(=O)c2csc(C(F)(F)F)n2)CC1 [Example 42, 4-(((1R,3s,5S)-3-(4-Methylpiperidin-1-yl)-8-azabicyclo[3.2.1]octan-8-yl)sulfonyl)-2-(trifluoromethyl)thiazole]
33 | 0.15 to 2 µM | CC(O)CNC1CC2CCC(C1)N2S(=O)(=O)c1ccc(OC(F)F)cc1 (stereo not drawn) [Example 48, 1-((8-((4-(Difluoromethoxy)phenyl)sulfonyl)-8-azabicyclo[3.2.1]octan-3-yl)amino)propan-2-ol]
